# Reference: PubChem BioAssay (NCI)
#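 Values below derive from 48-hour exposures of cells grown in 96-well plates, with endpoints linearly interpolated between the two concentrations bracketing the appropriate inhibition level. TGI is the concentration that stops growth completely.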
# What was measured:
# Experiment in all cases: NCI tumour cell line growth inhibition, 48 h
# 786-0 renal = test system: 786-0 renal
# A498 renal = test system: A498 renal
# ACHN renal = test system: ACHN renal
# CCRF-CEM leukemia = test system: CCRF-CEM leukemia
# COLO 205 colon = test system: COLO 205 colon
# HCT-116 colon = test system: HCT-116 colon
# HL-60(TB) leukemia = test system: HL-60(TB) leukemia
# HOP-62 NSCLC = test system: HOP-62 NSCLC
# HOP-92 NSCLC = test system: HOP-92 NSCLC
# HT29 colon = test system: HT29 colon
# IGROV1 ovarian = test system: IGROV1 ovarian
# K-562 leukemia = test system: K-562 leukemia
# KM12 colon = test system: KM12 colon
# KM20L2 colon = test system: KM20L2 colon
# LXFL 529 NSCLC = test system: LXFL 529 NSCLC
# M14 melanoma = test system: M14 melanoma
# M19-MEL melanoma = test system: M19-MEL melanoma
# MALME-3M melanoma = test system: MALME-3M melanoma
# NCI-H23 lung = test system: NCI-H23 lung
# NCI-H460 lung = test system: NCI-H460 lung
# NCI-H522 lung = test system: NCI-H522 lung
# OVCAR-4 ovarian = test system: OVCAR-4 ovarian
# OVCAR-5 ovarian = test system: OVCAR-5 ovarian
# RPMI-8226 leukemia = test system: RPMI-8226 leukemia
# RXF 393 renal = test system: RXF 393 renal
# SF-268 CNS = test system: SF-268 CNS
# SF-295 CNS = test system: SF-295 CNS
# SF-539 CNS = test system: SF-539 CNS
# SK-MEL-2 melanoma = test system: SK-MEL-2 melanoma
# SK-MEL-28 melanoma = test system: SK-MEL-28 melanoma
# SK-OV-3 ovarian = test system: SK-OV-3 ovarian
# SNB-19 CNS = test system: SNB-19 CNS
# SNB-75 CNS = test system: SNB-75 CNS
# SNB-78 CNS = test system: SNB-78 CNS
# SR leukemia = test system: SR leukemia
# U251 CNS = test system: U251 CNS
# UACC-257 melanoma = test system: UACC-257 melanoma
# UACC-62 melanoma = test system: UACC-62 melanoma
# UO-31 renal = test system: UO-31 renal
# A549 NSCLC = test system: A549 NSCLC
# CAKI-1 renal = test system: CAKI-1 renal
# DLD-1 colon = test system: DLD-1 colon
# DMS 114 small cell lung = test system: DMS 114 small cell lung
# DMS 273 small cell lung = test system: DMS 273 small cell lung
# EKVX NSCLC = test system: EKVX NSCLC
# HCT-15 colon = test system: HCT-15 colon
# HOP-18 NSCLC = test system: HOP-18 NSCLC
# MOLT-4 leukemia = test system: MOLT-4 leukemia
# NCI-H226 lung = test system: NCI-H226 lung
# OVCAR-3 ovarian = test system: OVCAR-3 ovarian
# OVCAR-8 ovarian = test system: OVCAR-8 ovarian
# SK-MEL-5 melanoma = test system: SK-MEL-5 melanoma
# SN12C renal = test system: SN12C renal
# SW-620 colon = test system: SW-620 colon
# TK-10 renal = test system: TK-10 renal
structure (smiles),measurement,setting,value
COc1ccc2c(c1)CC[C@@H]1C2CC[C@]2(C)C(=O)N(CCN3CCCCC3)C(=O)CC12 (stereo partly drawn),TGI,786-0 renal,> 100 µM
same,TGI,A498 renal,> 100 µM
same,TGI,ACHN renal,> 100 µM
same,TGI,CCRF-CEM leukemia,> 100 µM
same,TGI,COLO 205 colon,> 100 µM
same,TGI,HCT-116 colon,> 100 µM
same,TGI,HL-60(TB) leukemia,61.1 µM
same,TGI,HOP-62 NSCLC,> 100 µM
same,TGI,HOP-92 NSCLC,> 100 µM
same,TGI,HT29 colon,> 100 µM
same,TGI,IGROV1 ovarian,> 100 µM
same,TGI,K-562 leukemia,> 100 µM
same,TGI,KM12 colon,> 100 µM
same,TGI,KM20L2 colon,> 100 µM
same,TGI,LXFL 529 NSCLC,> 100 µM
same,TGI,M14 melanoma,48.9 µM
same,TGI,M19-MEL melanoma,> 100 µM
same,TGI,MALME-3M melanoma,> 100 µM
same,TGI,NCI-H23 lung,> 100 µM
same,TGI,NCI-H460 lung,> 100 µM
same,TGI,NCI-H522 lung,> 100 µM
same,TGI,OVCAR-4 ovarian,> 100 µM
same,TGI,OVCAR-5 ovarian,> 100 µM
same,TGI,RPMI-8226 leukemia,> 100 µM
same,TGI,RXF 393 renal,99.2 µM
same,TGI,SF-268 CNS,> 100 µM
same,TGI,SF-295 CNS,> 100 µM
same,TGI,SF-539 CNS,> 100 µM
same,TGI,SK-MEL-2 melanoma,> 100 µM
same,TGI,SK-MEL-28 melanoma,> 100 µM
same,TGI,SK-OV-3 ovarian,> 100 µM
same,TGI,SNB-19 CNS,> 100 µM
same,TGI,SNB-75 CNS,> 100 µM
same,TGI,SNB-78 CNS,> 100 µM
same,TGI,SR leukemia,> 100 µM
same,TGI,U251 CNS,> 100 µM
same,TGI,UACC-257 melanoma,63.4 µM
same,TGI,UACC-62 melanoma,41.7 µM
same,TGI,UO-31 renal,> 100 µM
COC(=O)CSc1n[nH]c(-c2ccccc2)n1,TGI,786-0 renal,> 100 µM
same,TGI,A498 renal,> 100 µM
same,TGI,A549 NSCLC,> 100 µM
same,TGI,ACHN renal,> 100 µM
same,TGI,CAKI-1 renal,> 100 µM
same,TGI,CCRF-CEM leukemia,> 100 µM
same,TGI,COLO 205 colon,> 100 µM
same,TGI,DLD-1 colon,> 100 µM
same,TGI,DMS 114 small cell lung,> 100 µM
same,TGI,DMS 273 small cell lung,> 100 µM
same,TGI,EKVX NSCLC,> 100 µM
same,TGI,HCT-116 colon,> 100 µM
same,TGI,HCT-15 colon,> 100 µM
same,TGI,HL-60(TB) leukemia,> 100 µM
same,TGI,HOP-18 NSCLC,> 100 µM
same,TGI,HOP-62 NSCLC,> 100 µM
same,TGI,HOP-92 NSCLC,> 100 µM
same,TGI,HT29 colon,> 100 µM
same,TGI,IGROV1 ovarian,> 100 µM
same,TGI,K-562 leukemia,> 100 µM
same,TGI,KM12 colon,> 100 µM
same,TGI,KM20L2 colon,> 100 µM
same,TGI,LXFL 529 NSCLC,> 100 µM
same,TGI,M14 melanoma,> 100 µM
same,TGI,M19-MEL melanoma,> 100 µM
same,TGI,MALME-3M melanoma,> 100 µM
same,TGI,MOLT-4 leukemia,43.2 µM
same,TGI,NCI-H226 lung,> 100 µM
same,TGI,NCI-H23 lung,> 100 µM
same,TGI,NCI-H460 lung,> 100 µM
same,TGI,NCI-H522 lung,> 100 µM
same,TGI,OVCAR-3 ovarian,> 100 µM
same,TGI,OVCAR-4 ovarian,> 100 µM
same,TGI,OVCAR-5 ovarian,> 100 µM
same,TGI,OVCAR-8 ovarian,> 100 µM
same,TGI,RPMI-8226 leukemia,> 100 µM
same,TGI,SF-268 CNS,> 100 µM
same,TGI,SF-295 CNS,> 100 µM
same,TGI,SF-539 CNS,> 100 µM
same,TGI,SK-MEL-2 melanoma,> 100 µM
same,TGI,SK-MEL-28 melanoma,> 100 µM
same,TGI,SK-MEL-5 melanoma,> 100 µM
same,TGI,SK-OV-3 ovarian,> 100 µM
same,TGI,SN12C renal,> 100 µM
same,TGI,SNB-19 CNS,> 100 µM
same,TGI,SNB-75 CNS,> 100 µM
same,TGI,SNB-78 CNS,> 100 µM
same,TGI,SR leukemia,43.5 µM
same,TGI,SW-620 colon,> 100 µM
same,TGI,TK-10 renal,> 100 µM
same,TGI,U251 CNS,> 100 µM
same,TGI,UACC-257 melanoma,> 100 µM
same,TGI,UACC-62 melanoma,> 100 µM
same,TGI,UO-31 renal,> 100 µM
